Measured values published in article PMC11969024, “Development of chemokine network inhibitors using combinatorial saturation mutagenesis” (Communications Biology, 2025).

System: THP1 cells, activated T-cells (ATC), J:CXCR1 cells
Assay: Meta-analysis of individual chemokine-induced cell migration experiments
Assay type: cell-based, human
Conditions: seven CC and three CXC chemokines, Dunnett's test
Protocol: Cell migration assays were performed as follows. THP1 cell migration. Briefly, 300000 cells/well were added to the top chamber of a 5-µm 96-well Transwell insert (3387, Corning) in 50 µL of cell migration media (RPMI-1640 (R0883, Sigma), 0.5% FBS (F9665, Sigma), 4mM L-Glutamine (G7513, Sigma), 0.05% DMSO (D4540, Sigma)). The bottom chamber contained 150 µL of migration media with chemokine and peptide. Cells were migrated at 37 °C in 5% CO2 for 4 h. J:CXCR1 cell migration was performed exactly as above using a 3-µm Transwell insert (3385, Corning). Activated T-cell migration. Briefly, 100000 cells/well were added to the top chamber of a 3-µm Transwell insert (3385, Corning) in 50 µL of migration media (HBSS (14025-092, Life Technologies), 0.1% protease free bovine serum albumin (A7030, Sigma), 0.05% DMSO (D4540, Sigma)). The bottom chamber contained 150 µL of migration media with chemokine and peptide. Cells were migrated at 37 °C in 5% CO2 for 2 h. Buffy coat migration. Briefly, a mixture of all cell types at 100000 cells/well were added to the top chamber of a 3-µm Transwell insert (3385, Corning) in 50 µL of migration media (HBSS (14025-092, Life Technologies), 0.1% protease free bovine serum albumin (A7030, Sigma), 0.05% DMSO (D4540, Sigma). The bottom chamber contained 150 µL of migration media with chemokine and peptide. Cells were migrated at 37 °C in 5% CO2 for 2 h. Analysis of cell migration. The migration plate was shaken at 850 RPM for 10 min, and media from bottom plate transferred to a round-bottomed 96 well plate (353910, Falcon). Cells were counted by flow cytometry as described above. Experiments were performed at chemokine EC80 for individual chemotaxis experiments and at EC50 for the pooled chemokine experiments, with three technical replicates, and at least three biological replicates. Statistical significance of differences between control and test groups was evaluated using a two-sided Dunnett’s test with multiple testing correction. Chemokine EC80 or chemokine pool EC50 values were as determined by performing a chemokine dose-response against the cell type and fitting the dose-response curve with a 3-parameter log-logistic model, where the maximal response is fixed at 100% response. […] IC50 was determined by performing inhibitor dose-response experiments and fitting the dose-response curve with a 3-parameter log-logistic model, fixing the bottom of the curve to zero. […] For summary statistics and comparisons, pEC50, pEC80 and pIC50 were calculated as the negative log10 of EC50, EC80 or IC50 expressed in moles/litre.
Sample size and estimated effect sizes were not formally calculated for cell-based or phage-display experiments and no randomization was performed. […]

Row | Sequence | migrated cell count over all chemokines studied, compared to HD2 (meta-analysis)
1 | EEDDYWAYAPLTCYFT [HD2T6W, HD2 point mutant] | significant improvement over HD2
2 | EEDDWTAYAPLTCYFT [HD2Y5W, HD2 point mutant] | significant improvement over HD2
